Experimental data taken from patent US7632814B2, “HYD1 peptides as anti-cancer agents” (University of South Florida, priority 2006, dated 2009).
Where no end group is shown, it is not given here. [ ]: non-standard residue; d: D form.

Assays:
Format in all cases: cell-based
[1] = tested on: MM1.S cells
Description: FIGS. 4A-4E are a series of graphs showing that the BMS model protects myeloma MM1.S cells from melphalan (FIG. 4A), mitoxantrone (FIG. 4B), and dexamethasone (FIGS. 4C-4E) induced cell death. SF+A model confers the highest levels of resistance to cell death induced by either mitoxantrone or melphalan.
FIGS. 10A-10E are a series of graphs showing that the BMS model protects MM1.S cells from melphalan (FIG. 10A), mitoxantrone (FIG. 10B), dexamethasone (FIGS. 10C and 10D), and velcade (FIG. 10E) induced cell death.
The CAM-DR phenotype is tested by removing unadhered cells before the addition of drug. […] For this reason, the inventors chose to test for the reversal of drug resistance in adherent cells by using a bone marrow stroma (BMS) model (HS-5 cell line). In the BMS model of drug resistance, cell-cell adhesion is mediated by multiple adhesion moieties and thus the addition of a β1 blocking antibody is not sufficient to block tumor cell adhesion to the BMS cell line. The BMS model system is described in FIGS. 3A-D. These models have facilitated the availability of four discrete hematopoietic tumor populations. The first tumor population (FIG. 3A) is maintained in a traditional suspension culture in RPMI media containing 10% FBS (RM). Conditioned media is prepared by adding fresh RPMI media containing 10% FBS to HS-5 cells which are 75% confluent. After three hours, the media is then collected, centrifuged and stored at −70 for up to one month. This tumor cell culture condition is referred to as CM (FIG. 3B). The third tumor cell population consists of placing HS-5 cells in the bottom chamber and tumor cell in a top chamber that is separated by a membrane allowing for diffusion of soluble factors (see FIG. 3C). This condition is distinct from CM because it considers dynamic soluble interactions between the tumor cell and BMS cells (see FIG. 3D). […] Regardless of the cytotoxic agent used, the levels of drug resistance are greatest for myeloma cells which are adherent to the BMS. […]

[2] = tested on: primary myeloma patient specimens; assay: Melphalan-induced cell death in primary myeloma patient specimens, FN-adherent vs suspension
Description: It has been reported that β1-integrin mediated adhesion of 8226 cells and K562 cells to FN blocked cell death induced by the alkylating agent melphalan (Damiano J S, et al. Blood. 1999; 93:1658-1667; Hazlehurst L A, et al. Cancer Res. 2003; 63:7900-7906). In order to determine whether the CAM-DR phenotype is a potential mechanism of clinical de novo drug resistance, melphalan-induced cell death was recently measured in primary myeloma patient specimens (See FIG. 2). Plasma cells were identified by either positive Kappa or Lambda staining, and apoptotic myeloma cells were identified by the Tunnel assay. 9 out of 10 patient specimens were protected from melphalan induced cell death when adherent to FN compared to suspension cultures.

[3] = tested on: H929 cells; assay: Detection of apoptosis, annexin V staining and FACS, suspension culture; conditions: H929 cells, 200 μM ZVAD-FMK 30 minutes prior, apoptosis at 24 hours, annexin/PI
Procedure: (§1) FIG. 17 is a graph showing that HYD1 induces apoptosis as a single agent in 8226 and H929 cells cultured in suspension. 8226 and H929 cells were either treated with varying concentrations of HYD1 or vehicle control (equal volume sterile double distilled water) for 24 hours and apoptotic cells were detected by FACS analysis of annexin V positive cells. HYD1 specific apoptosis equals cell death due to peptide minus any apoptosis detected in control cells.
200 μM ZVAD-FMK was added to H929 cells for 30 minutes prior to the addition of either 75 μg/ml HYD1S or 15 μM Melphalan. Apoptosis was measured 24 hours after drug treatment by annexin/PI staining and apoptotic cells were detected by FACS analysis. Three independent experiments were performed and shown is a representative experiment.
Detection of Apoptosis. […] Blood, 1999; 93:1658-1667). The assay was performed in triplicate and 3 independent experiments were performed. Caspase 3 and 8 activity was measured at 6 and 24 hrs post peptide treatment per manufactures' instructions (BD Biosciences, San Jose, Calif.). The caspase assays were performed in triplicate and repeated twice.
(§2) Myeloma cells were plated at a density of 400,000 cells per ml in a 24 well plate. Cells were treated with the indicated dose of the peptide for 24 hours. Following 24 hrs of peptide exposure, apoptotic cells were detected using Annexin V staining and FACS analysis. Ten thousand events were analyzed by flow cytometry (Becton Dickinson, San Jose, Calif.). Experiments were performed in triplicate and repeated twice. Shown is a representative figure.

[4] = tested on: prostate tumor cell; assay: Random haptotaxis (cell migration) on laminin 322 (laminin 5); conditions: scrambled peptide HYDS indicates 100% cell migration
Description: Defining the minimal region of HYD1 necessary to potentiate drug-induced apoptosis in suspension and adherent cultures is of interest. Below is a study to determine the minimal HYD1 sequence required to block prostate tumor cell migration. Similar studies as those outlined below and using the same peptide sequences will be used to determine the minimal amino acid sequence required for potentiation of drug induced apoptosis.
This response to the peptide is independent of disrupting adhesion to laminin 322 (laminin 5) since the cells were grown on a ligand before treatment with the peptide. […] All other alanine-substitution mutants resulted cell migration, i.e., a loss of peptide activity.
Using the negative control scrambled peptide, HYDS (SEQ ID NO:44), to indicate 100% cell migration, several truncated peptides including, ikmviswkg (SEQ ID NO:22), kmviswkg (SEQ ID NO:39), and kikmviswk (SEQ ID NO:37) were effective at blocking cell migration by approximately 50%.

[5] = tested on: ERK; assay: Activation of ERK signaling; conditions: for activation of ERK: 10 minutes post-treatment
Procedure: HYD1, when introduced as a soluble ligand, completely blocks random hapotaxis on laminin 322 and enhanced cellular signals are coupled with the loss of cell motility. […] Using this endpoint as an indicator of HYD1 bioactivity, the truncated and alanine-substituted variants of HYD1 were tested for their ability to activate ERK. Activation of ERK at 10 minutes post-treatment was conserved with alanine-substitution only at the N-terminal lysine and C-terminal glycine (FIG. 16A-1). […] Taken together (FIG. 16C-2), the results (FIGS. 16A-1, 16A-2, 16B, 16C-1) indicate that activation of ERK signaling required ikmviswxx (SEQ ID NO:48).

[6] = tested on: 8226 cells; assay: Detection of apoptosis, annexin V staining and FACS, suspension culture; conditions: 24 hours, annexin V
Procedure: as §1
Detection of Apoptosis. A flow cytometric assay measuring Annexin V/PI staining was used to measure apoptotic cells following 24 hours of peptide exposure as previously described (Damiano J S et al. Blood, 1999; 93:1658-1667). The assay was performed in triplicate and 3 independent experiments were performed. Caspase 3 and 8 activity was measured at 6 and 24 hrs post peptide treatment per manufactures' instructions (BD Biosciences, San Jose, Calif.). The caspase assays were performed in triplicate and repeated twice.
as §2

N[C@@H](Cc1ccc(N(CCCl)CCCl)cc1)C(=O)O [melphalan]
resistance to drug induced cell death conferred by HS-5 stromal layer in the BMS model [1]: sufficient to confer resistance
mean percent apoptosis of plasma cells adhered to FN ([2]; 200 μM melphalan, bone marrow aspirates, adhered to FN prior to treatment): 27.7%
mean percent apoptosis of plasma cells in suspension cultures ([2]; 200 μM melphalan, suspension cultures): 55.6%
patient specimens protected from melphalan induced cell death when adherent to FN ([2]; compared to suspension cultures, ten patients): 9 out of 10
protection from induced cell death by pan caspase inhibitor ZVAD-FMK [3]: blocked the majority

O=C1c2c(O)ccc(O)c2C(=O)c2c(NCCNCCO)ccc(NCCNCCO)c21 [mitoxantrone]
resistance to drug induced cell death conferred by HS-5 stromal layer in the BMS model [1]: sufficient to confer resistance

CC(C)C[C@H](NC(=O)[C@H](Cc1ccccc1)NC(=O)c1cnccn1)B(O)O [velcade]
resistance to drug induced cell death conferred by HS-5 stromal layer in the BMS model [1]: sufficient to confer resistance

ikmviswkg (IKMVISWKG; HYD1 fragment)
blocking cell migration [4]: approximately 50%

iswkg (ISWKG; HYD1 fragment)
activation of ERK [5]: partial activation of ERK

kikmv (KIKMV; HYD1 fragment)
ERK signal of N-terminal region compared with C-terminal region [5]: stronger signal than iswkg
activation of ERK [5]: partial activation of ERK

kikmviswk ([dK][dI][dK][dM][dV][dI][dS][dW][dK]) [HYD1-g, C-terminus glycine deleted]
blocking cell migration [4]: approximately 50%
potency in inducing 8226 cell death compared to HYD1 [6]: increased potency
potency in inducing 8226 cell death compared to HYD1 ([6]; listed as kikmviswk): greater potency

kmviswkg (KMVISWKG; HYD1 fragment)
blocking cell migration [4]: approximately 50%
